Results reported in patent publication US20060257875A1, “Affinity screening using "one-bead-one-compound" libraries” (Carlsberg A/S, priority 2003, published 2006).
Where “and” joins values, the source holds several entries; their conditions need not be identical. Identical values can stand only once. Entries after “also recorded” stand apart in the source; their conditions may differ. Like-named read-outs stand apart in the source and are kept apart here. Starred links: 1 amine or outer side, 2 acyl side, 3 side chain; linkers in the order of their positions; H or OH if unused. Non-standard residues stand in square brackets, D forms with d. Primed or numbered codes have the meaning given here. No end group written: not given here. Pip′ = 4-phenyl-piperidine-4-carboxylic acid, O=C(C1(c2ccccc2)CCN([*:1])CC1)[*:2]; Abi = 3-amino-3-(biphenyl)-propanoic acid; 3Pal = N[C@@H](Cc1cccnc1)C(=O)O; GlcNN = not defined here; Acm′ = not defined here; ManN = not defined here; ManS = not defined here

How the values were obtained:
[1] = test system: normal (basal) myocyte protein mixtures; test: Solid phase screening of Library 1 with labeled myocyte proteins; bound proteins identified by on-bead digest and peptide mass fingerprinting; format: binding, neonatal Wistar rats; conditions: Library 1 ligand on PEGA4000 bead; Normal Myocytes; proteins primarily present in basal cells
Description: (§1) Myocytes were prepared from 1 to 5 day old neonatal Wistar rats (University of Copenhagen) according to literature procedure described in Busk et al., 2002, Cardiovasc. Res., 56: 64-75 and plated into eight P10 culture plates at 6 million cells/plate.
(§2) Protein was extracted from myocytes prepared as described above for Example 9, using a new procedure modified from existing protocols, primarily: Arrott, et al., 1998, Anal Biochem. 258: 1-18. The media was removed from plates and adhered cells were treated for 10 minutes with ice cold phosphate buffer (0.25 mL, 10 mM, pH 7.5, augmented with 0.15 M NaCl 60 mM Benzamidine HCl, 5 mM EDTA, 10 μg/n E-64, 10 μg/mL Leu-peptin, 10 μg/mL Pepstatin A, and 1 mM PMSF). The cells were scraped off the plates and then lysed (on ice) in a sonicator (2×) using 10 seconds off/10 seconds on cycles.
(§3) The resulting suspension was augmented with CHAPS, DTT, and urea to a final concentration of CHAPS (1% w/v), DTT (5 mM), and urea (8 M). After 10-15 minutes on ice, the solution was centrifuged for 10 minutes at 15,000 rpm at 4° C. The supernatant was removed and protein content quantified using the NanoOrange Protein test (Molecular Probes, Eugene, Oreg.): Total protein recovered: 70.5 μg for PE-treated cells and 60 μg for basal cells.
(§4) Fluorescent dye Oregon Green 514 (OR) (Molecular Probes) was used to label the healthy/basal cells while Rhodamine Red (RR) (Molecular Probes) was used to label the PE-treated cells. The labeling procedures were carried out according to the manufacturer's protocol. The protein solutions (0.25 mL, 50.4 μg for PE cells and 0.25 mL, 42.8 μg for basal cells) were dialyzed against a solution of 10 mM phosphate buffer, 0.15 M NaCl, pH 7.5 and then 1 M NaHCO3 (0.025 mL) added to a final pH of 8.5. 10 μL of dye in dry DMF (10 mg/mL) was added and the sample stirred at room temperature for 2 hours. The protein solution was dialyzed extensively against 10 mM phosphate buffer, 0.15 M NaCl, pH 7.5, to remove excess dye.
(§5) Ligand library 1 (200 mg), prepared as described for Example 5, was transferred to a syringe fitted with a stop-valve and the ligand-beads were washed for 10 minutes (3×) with 10 mM phosphate buffer, pH 6.8, supplemented with 0.15 M NaCl, 1 mM Ca^2+, 1 mM Zn^2+, 1 mM Mn^2+, 1 mM Cu^2+, and 1 mM Mg^2+ (3 mL). The ligand-beads were treated with a 1% BSA solution for 30 minutes, then washed with buffer (1×). A mixture of labeled myocyte proteins, including both PE-induced protein (138 μL, 40 μg) and basal protein (167 μL, 40 μg) obtained as described above for Example 11, was prepared in 1.2 mL buffer, and added to the ligand library in the syringe. The proteins and ligand library were incubated at room temperature for 16 hours. The library was then washed with buffer for 5 minutes then with water for 3×5 minutes. The library was examined under a fluorescence microscope and brightly fluorescent red, green, and yellow beads (yellow indicative of both dyes red and green binding; the majority of the beads) were present, as well as unlabelled beads. The fluorescent beads were separated and retained for analysis.
(§6) The fluorescent ligand library beads containing bound protein obtained as described in Example 15 were sorted using a COPAS (250) NF Bead Sorter (Union Biometrica, Somerville, Mass.) equipped with a single flourescence emission. Beads emitting fluorescence of only one color contain proteins from one physical state, e.g. proteins expressed only in the PE-induced hypertrophic state (red) or proteins expressed only in the basal state (green). Since the instrument measures one fluorescence emission at a time, beads containing one type of color fluorescence were first sorted and then beads were resorted for emissions from the other fluorescence color. The library was first sorted such that all beads containing significant green fluorescence, basal proteins from healthy myocytes, were isolated. […]

[2] = test system: six protein mixture: Con A, P. sativum lectin, L. culinaris lectin, W. floribunda lectin, Glyceraldehyde 6-phosphate, bovine serum albumin; test: Solid phase screening of Library 3 with labeled six protein mixture; affinity purification, gel electrophoresis and Edman degradation; format: binding; conditions: for Identified Protein(s): Library 3 ligand on PEGA6000 resin
[3] = test system: phenylephrine (PE)-treated myocyte proteins; test: Solid phase screening of Library 1 with labeled myocyte proteins; bound proteins identified by on-bead digest and peptide mass fingerprinting; format: binding, neonatal Wistar rats; conditions: Library 1 ligand on PEGA4000 bead; Phenylephrine Treated (Hyperthrophic) Myocytes
Description: as §1, §2, §3, §4, §5, §6

[4] = test system: basal myocyte protein; test: Solid phase screening of Library 6 with unlabeled myocyte proteins; silver staining, on-bead tryptic digest; format: binding, neonatal Wistar rats; conditions: Normal Myocytes
Description: as §1
Isolated proteins that bound to specific ligands were identified using peptide mass fingerprinting. Mass spectra were recorded on a Bruker Reflex m MALDI time-of-flight mass spectrometer (Bruker-Daltonics, Bremen, Germany) operated in the positive reflectron mode using delayed extraction. Measurements were performed using the following parameters: Power 83-84 V; lens 7.300. The sum of 200-300 shots was used for each spectrum.
The spectra were calibrated using bradykinin peptide. In some cases, internal mass calibration was performed using a porcine trypsin autolysis product Peptide masses were searched against peptide mass maps in the National Center for Biotechnology Information (NCBI) database using the following search engines found on the world wide web (www.) for each of: • MS-FIT (prospector.ucsf.edu/ucsfhtml/msfit.htm), • Profound (129.85.19.192/profound_biniWebProFound.exe), and • MASCOT (matrixscience.com).
A search was performed using the NCBI bacterial (E. coli) database and the mammalian databases for the isolated proteins from the E. coli and myocyte samples, respectively, and the Swiss Prot mammalian databases and the Swiss Prot viral databases were searched to identify the porcine macrophage proteins and proteins, respectively. A molecular mass range was estimated from 0-250 K Da, allowing a mass accuracy that varied from 0.1 Da (some cases 0.3 Da) for each peptide mass. A large pI range from 0-14 or 0-12 was considered for each search. If no proteins matched, the mass window was extended. Partial enzyme cleavages allowing for two missed cleavage sites and modification of cysteine by alkylation were considered in the search approaches. A protein was considered identified if the matched peptides covered at least 30% of the complete sequence. A match of less than 30% was considered in some cases, if prominent peaks were obtained. Usually, four or more peptides were used for identification. In some instances, hypothetical proteins or gene products, such as biochemical material, either RNA or protein, calculated from the expected expression of a gene and to which a function may be assigned based on sequence homology, were identified.
Protein was extracted from myocytes prepared as described above for Example 9, using a new procedure (to preserve the activity of metalloproteases) modified from existing protocols, primarily: Amott, et al., 1998, Anal. Biochem. 258: 1-18. The media was removed from plates and cells were washed with ice cold phosphate buffer (5 ml, 10 mM, pH 7.5, supplemented with 0.15 M NaCl,) to remove traces of media components. The adhered cells were treated for 10 minutes with ice cold phosphate buffer (2 mL, 10 mM, pH 7.5, augmented with 0.15 M NaCl, […] E-64, 10 μg/mL Leupeptin, and 10 μg/mL Pepstatin A). The cells were scraped off the plates and then lysed (on ice) in a sonicator (2×) using 10 seconds off/110 seconds on cycles.
as §3, with “with” for “with CHAPS, DTT, and urea to a final concentration of”, “w/v), KCl (50 mM), NaCl (0.5 M), ZnCl2 (0.1 mM),” for “w/v),”, “(2” for “(8”, “195” for “70.5”, “PE-induced” for “PE-treated”, “200” for “60”
The protein solutions were dialyzed extensively against 20 mM MES (2-[N-Morpholino]ethanesulfonic acid) buffer pH 6.0, supplemented with 0.15 M NaCl and 1 mM ZnCl2 to remove excess detergent and urea. […]

Compound | Identified Protein(s) [1] | Identified Protein(s) [4] | other results
Phe-Thr-Pya-Pip-Asp-His (FT[3Pal][Pip′]DH) | (Sodium channel (gi 18591322) (M); Chloride channel (gi and 6978663/4502867) (M)) Troponin I (gi 1351298);; Zn Fin- and ger protein (gi 18591322) (MA); SPTR (peroxisomal Ca and dependent solute carrier (putative) (gi 12853685); and Beta-2 adnergic receptor (gi 12699028) |  | 
HTWGYW |  |  | Identified Protein(s) ([2]; six protein mixture): Con A; selectivity of binding among the lectins ([2]; six protein mixture): binds selectively to Con A
Pal-Gly-Abi-Hyp-Pya-Trp |  |  | Identified Protein(s) [3]: NAS putative unclassified (gi 12861084); Putative Zn; also recorded: finger protein 64 (gi 12849329)
CCOC(=O)C(CCc1ccccc1)NC(CCCCN)C(=O)N[C@@H](C)C(=O)O (some centres unmarked) |  | Testase 1 or disintegrin 5 containing metalloproteinase domain 24 (gi 31981793); ADP-ribosylation factor like protein 8 (Q96KC2). | 
Abi-Phe-Abi-Phe-Che-Tyr |  |  | Identified Protein(s) [3]: Cathepsin E (gi 4503145); Ribosomal proteins (60s L; also recorded: series) (gi 20826861)
Phe-Phe-Phe-Pip-Aze-Gua | Phosphatidyl choline-sterol acyl transferase (400167;; also recorded: LCAT-PIG_9) |  | 
FTYFAK | Serine/threonine Protein kinase (gi 5730055); Carbonic; also recorded: anhydrase VII (gi 10304383) |  | 
Phe-Abi-Pal-Hyp-Thr-Hyp |  |  | Identified Protein(s) [3]: Zinc finger associated protein gi 20304091; Ribosomal; also recorded: proteins 40S L series (gi 206736/133023);
GlcNN-Val-GlcNN-His-ManS-Gly |  |  | Identified Protein(s) ([2]; six protein mixture): Con A, P. sativum; also recorded: lectin
CCCCCCNC(=O)C(CCCCN)NC(C(C)C)C(C)C (centres unmarked) [drawing 170] |  | Heat Shock protein 70 kDa protein 12A (Q8KOU4); Ser- ine/threonine protein kinase (O88866); Ras GTPase acti- vating protein 2 (GAP1m) (58069). | 
ManN-Phe-Trp-Ser-Lys-His ([ManN]FWSKH; reading uncertain; also: printed as ManN-Phe-Trp-Ser-Lys-His) |  |  | Identified Protein(s) ([2]; six protein mixture): Con A, P. sativum; also recorded: lectin
GlcNN-Trp-Phe-Asp-Trp-Pro ([GlcNN]WFDWP; reading uncertain) |  |  | selectivity of binding among the lectins [2]: binds only to Con A and not to the other lectins; Identified Protein(s) ([2]; six protein mixture): Con A
CCOC(=O)C1CCCCC1NC(CCCCN)C(=O)NC(CCCCNC(=O)OC(C)(C)C)C(=O)O (centres unmarked) |  | Angiotensin converting enzyme (P22967); U2 nuclear ribonuceoprotein zuxiliary factor (gi 2842676). | 
Pip-Pal-Pal-Phe-Pya-Pip | 544086) (M); Ribosomal proteins (60s) (gi 21426891); and SPTR (gi 20837095) (M) and Ca2+/Calmodulin activated Myosin light chain kinase (gi and 284660) (LA, MA); Regulator of G-Protein Signalling and (RGS14) variant (gi 2708808) ATP Synthase component and (subunit e) (gi 258788) (M);; Cytochrome P450 (gi |  | 
CCOC(=O)C(CCc1ccccc1)NC(CCCCN)C(=O)N1CCC[C@H]1C(=O)O (some centres unmarked) [drawing 164] |  | Angiotensin converting enzyme (P22967); U2 nuclear ribonucleoprotein auxxiliary factor (gi 2842676). | 
CC(C)C(NC(CCCCN)C(=O)N1CCN(C(=O)OC(C)(C)C)CC1)C(C)C (centres unmarked) |  | Angiotensin converting enzyme (P22967). | 
CCCCCCNC(=O)C(CCCCN)NC1CCCCC1C(=O)OCC (centres unmarked) |  | Inward rectifier potassium channel 13 (Q9QZ65, IRKD_CAVPO); Sulfonylurea receptor 2 (Q63563); small conductance potassium channel (P58391). | 
CCC(CCO)NC(CCCCN)C(=O)N1CCN(C(=O)OC(C)(C)C)CC1 (centres unmarked) |  | Angiotensin converting enzyme (P22967). | 
CC(C)C(NC(CCCCN)C(=O)C[C@@H](C)C(=O)O)C(C)C (some centres unmarked) |  | Mysoin heavy chain nonmuscular type (AQ62812). | 
CCCCCCNC(=O)C(CCCCN)NC(CC)CCO (centres unmarked) |  | Myosine heavy chain, nonmuscular type (AQ62812); Hypothetical protein E330017A01 (XP-148690.1). | 
ManS-Gly-ManS-Asp-Asn-Ala ([ManS]G[ManS]DNA; reading uncertain; also: printed as ManS-Gly-ManS-Asp-Asn-Ala) |  |  | Identified Protein(s) ([2]; six protein mixture): Con A, P. sativum; also recorded: lectin
Pya-Hyp-Hyp-Phe-Acm-Tyr | Troponin T (gi 547047); Ca2+/Calmodulin activated My-; also recorded: osin light chain kinase (gi 284660) (LA, MA); cGMP-; also recorded: dependent protein kinase (gi 284660) (LA) |  | 
His-Tyr-Pip-Thr-Acm-Abi (HY[Pip′]T[Acm′][Abi]; reading uncertain; also: printed as His-Tyr-Pip-Thr-Acm-Abi) | Chain C P27 cyclin A-CDK2 complex: (Cyclin A?) (gi and 2392395); Hypothetical protein XP_154035. |  | 
CCOC(=O)C1CCCCC1NC(CCCCN)C(=O)N[C@@H](C)C(=O)O (some centres unmarked) |  | Golgi coiled coil protein GCC185 (Q8CHG3). | 
Phe-Gua-Asp-Abi-His-Aze | Hypothetical protein XP_043250 (gi 14773490) |  | 
Phe-Ppy-Acc-Ala-Ppy-Hpy | Hypothetical proteins; Troponin T gi 547047;; (Phospho-; also recorded: lipase C (MA); Phosphatidyicholine sterol acyl trans-; also recorded: ferase (400167;LCAT-PIG_9)) |  | 
Pya-Gua-Pip-Acc-Phe-Pip | NADH dehydrogenase; ATP binding component (gi 18598538); also recorded: (M); Myosin heavy polypeptide 9 (gi 13543854); Histone; also recorded: associated proteins (gi 20893760) (M) |  | 
